ChEMBL document CHEMBL5055632, “Anti-Inflammatory and Antinociceptive Properties of Kielmeyerone A, a Chromenone Isolated from the Roots of Kielmeyera reticulata” (J Nat Prod, 2021)
Calls of active or inactive are those of the source. No cut-off for these calls is given here.

What was measured:
Mus musculus [1] = test: Antinociceptive activity in Swiss Webster mouse model of formalin-induced biphasic nociceptive response assessed as reduction in pain during late phase at 5 mg/kg, ip administered 40 mins before formalin injection and measured after 10 to 30 mins post formalin challenge; assay type: functional, organism-based; details: time 50-70 min
Mus musculus [2] = test: Antinociceptive activity in Swiss Webster mouse model of formalin-induced biphasic nociceptive response assessed as reduction in pain during early phase at 5 mg/kg, ip administered 40 mins before formalin injection and measured after 10 mins post formalin challenge; assay type: functional, organism-based; details: time 50.0 min
Mus musculus [3] = test: Antinociceptive activity in ip dosed Swiss Webster mouse model of formalin-induced biphasic nociceptive response assessed as reduction in pain during late phase when administered 40 mins before formalin injection and measured after 10 to 30 mins post formalin challenge; assay type: functional, organism-based; details: dose 12.5-50 mg/kg, time 50-70 min
Mus musculus [4] = test: Effect on motor performance in Swiss Webster mouse assessed as effect on relaxing or motor deficit at 100 mg/kg, ip measured up to 120 sec by rotarod test; assay type: ADME, organism-based; details: in vivo, 2 min
Mus musculus [5] = test: Antiinflammatory activity in ip dosed Swiss Webster mouse model of complete freund's adjuvant-induced paw edema assessed as reduction in paw edema when administered 40 mins before CFA injection by plethysmometer analysis; assay type: functional, organism-based; details: dose 12.5-50 mg/kg
J774 [6] = test: Cytotoxicity against LPS and IFN-gamma stimulated mouse J774 cells at 0.39 to 25 uM incubated for 72 hrs by alamar blue dye based colorimetric plate analysis; assay type: cell-based; details: j774, 72 h, dose 0.39-25 µM
J774 [7] = test: Antiinflammatory activity against mouse J774 cells assessed as inhibition of LPS/IFNgamma-stimulated NO production at 0.097 to 1.56 uM incubated for 24 hrs bu Griess reagent based assay; assay type: functional, cell-based; details: dose 0.097-1.56 µM
Mus musculus [8] = test: Antinociceptive activity in Swiss Webster mouse model of formalin-induced biphasic nociceptive response assessed as reduction in pain during early phase at 12.5 to 50 mg/kg, ip administered 40 mins before formalin injection and measured after 10 mins post formalin challenge; assay type: functional, organism-based; details: dose 12.5-50 mg/kg, time 50.0 min
Mus musculus [9] = test: Antiinflammatory activity in Swiss Webster mouse model of complete freund's adjuvant-induced paw edema assessed as reduction in paw edema at 2 mg/kg, ip administered 40 mins before CFA injection by plethysmometer analysis; assay type: functional, organism-based

CN1CC[C@]23c4c5ccc(O)c4O[C@H]2[C@@H](O)C=C[C@H]3[C@H]1C5
Activity (Mus musculus [1]): Active
Activity (Mus musculus [2]): Active

CC(C)=CCC1(CC=C(C)C)C(=O)c2c(CC(C)C)cc(=O)oc2C(C(=O)CC(C)C)=C1O
Activity (Mus musculus [3]): inactive
Activity (Mus musculus [4]): Non-Toxic
Activity (Mus musculus [5]): Dose-dependent effect
Activity (J774 [6]): Non-Toxic
inhibition (J774 [7]): Active
Activity (Mus musculus [8]): Dose-dependent effect

COc1ccc2c(c1)c(CC(=O)O)c(C)n2C(=O)c1ccc(Cl)cc1
Activity (Mus musculus [1]): Active
Activity (Mus musculus [2]): inactive

C[C@@H]1C[C@H]2[C@@H]3CCC4=CC(=O)C=C[C@]4(C)[C@@]3(F)[C@@H](O)C[C@]2(C)[C@@]1(O)C(=O)CO
Activity (Mus musculus [9]): Active
